{"source": "patent US5932743A", "about": "“Methods for the solid phase synthesis of substituted indole compounds” (American Home Products Corporation, priority 1998, dated 1999)", "target": "T1, human estrogen receptor (Homo sapiens, UniProt P03372)", "T1 construct": "expressed in transfected cells; host or cells: Chinese Hamster Ovary cells (CHO), stably transfected", "T1 sequence (P03372 1-595)": "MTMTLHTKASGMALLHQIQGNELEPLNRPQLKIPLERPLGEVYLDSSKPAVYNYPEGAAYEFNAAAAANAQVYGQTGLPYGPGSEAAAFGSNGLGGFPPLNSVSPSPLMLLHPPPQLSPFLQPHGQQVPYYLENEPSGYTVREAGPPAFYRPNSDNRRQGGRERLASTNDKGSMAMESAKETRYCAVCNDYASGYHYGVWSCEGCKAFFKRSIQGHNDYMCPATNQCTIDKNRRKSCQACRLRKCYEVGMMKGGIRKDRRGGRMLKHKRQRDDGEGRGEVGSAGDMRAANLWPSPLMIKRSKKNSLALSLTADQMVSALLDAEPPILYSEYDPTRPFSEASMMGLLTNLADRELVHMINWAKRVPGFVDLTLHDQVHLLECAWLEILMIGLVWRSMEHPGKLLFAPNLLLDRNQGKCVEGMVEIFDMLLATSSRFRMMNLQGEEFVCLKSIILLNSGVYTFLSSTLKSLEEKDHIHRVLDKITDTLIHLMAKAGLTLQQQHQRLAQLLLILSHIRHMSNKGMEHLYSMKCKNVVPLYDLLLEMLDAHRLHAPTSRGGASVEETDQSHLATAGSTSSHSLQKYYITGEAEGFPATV", "assay": "2X VIT ERE Transfection Assay (estrogen receptor assay; luciferase reporter activity compared to 17β-estradiol in CHO cells stably transfected with the human estrogen receptor)", "type": "cell-based", "settings": "1 μM compound", "method": "Enhancement of luciferase gene expression in this model is dependent upon estrogen receptor (ER) interaction with a vitellogenin gene estrogen responsive element (ERE) capable of enhancing basal promoter activity. This is a sensitive and rapid methodology to assess estrogenic/antiestrogenic potency of compounds.\n48 h prior to treatment the growth medium is replaced with DMEM lacking phenol red+10% dextran coated charcoal stripped FBS (treatment medium). Cells are plated at a density of 5000 cells/well in 96-well plates containing 200 μL of medium/well.\n20 μL of this mixture is added to each well of cells and remains on the cells for 16 h. […] Each treatment condition is performed on 8 wells (n=8) which are incubated for 24 h prior to luciferase assay.\nThe data is logged and automatically sent to a JMP statistical program for analysis. A hard copy printout is also produced at the time of the assay.\nA plate containing a standard curve (0.1 to 1.5 milliunits in triplicate) is set up for each experimental run. The plates are analyzed on a Molecular Devices spectrophotometric plate reader at 410 nm. The optical densities for the unknowns are converted to milliunits of activity by mathematical extrapolation from the standard curve. […] The mean and standard deviation is determined from a n=8 for each treatment.", "data": [{"compound": "CCOC(=O)Cn1c(-c2ccccc2)c(C2=C(C(=O)OC)CCC2)c2ccc(C(=O)O)cc21", "note": "[Example 12, 1-Ethoxycarbonylmethyl-3-(2-methoxycarbonyl-cyclopent-1-enyl)-2-phenyl-1H-indole-6-carboxylic Acid]", "values": [{"measurement": "estrogenic classification / activity in words", "value": "estrogenic"}]}]}
